Consider five compounds from US20220363689A1, “INHIBITOR OF BTK AND MUTANTS THEREOF” (Newave Pharmaceutical Inc., priority 2019, published 2022).

Each structure is given as a SMILES string. Where two headings read alike, the source gives them in different places.

Data set [1] has as its target T1, WT BTK (Homo sapiens, UniProt Q06187). Description: In vitro dialysis assay (irreversibility assay), WT BTK. The settings on record: reversible or irreversible/covalent inhibition after 24 h dialysis. The class given is biochemical. The method, then:
The compound-enzyme complex was dialyzed against the same buffer supplemented with 40 mM ATP for 24 hr. Cumulative dialysis factor>160,000×. After dialysis, the BTK activity was measured in the presence […] and 1 mM substrate peptide and compared to that in non-dialyzed samples. Assay buffer: 100 mM HEPES, pH7.5; […]; 5 mM MgCl2; 1 mM DTT. In this study, Ibrutiib (a FDA approved irreversible BTK inhibitor) was used as a positive control and Saurosporine (a reversible BTK inhibitor) was used as a negative control.

Data set [2] addresses T1, WT BTK. Description: Caliper-based kinase assay, WT BTK. It counts as biochemical. The settings on record: 0.5 nM enzyme, ATP 16 μM, room temperature 3 h; read-out: WT BTK IC50 (nM) (irreversible inhibition). The procedure:
(§1) A Caliper-based kinase assay (Caliper Life Sciences, Hopkinton, Mass.) was used to measure inhibition of WT and […] Btk kinase activity of a compound of the present disclosure. […] The reaction was then terminated with EDTA, final concentration 20 mM and the phosphorylated reaction product was quantified on a Caliper Desktop Profiler (Caliper LabChip 3000).

Data set [3] deals with liver cancer cell line HepG2. As to the kind of experiment: HepG2 in vitro liver toxicity assay (ATPlite). The class given is cell-based. As to conditions: another experiment, about 72 hours incubation, read-out: HepG2 IC50 (another experiment). The method, then: Cell antiproliferation is assayed by PerkinElmer ATPlite™ Luminescence Assay System. Briefly, the liver cancer cell line HepG2 are plated at a density of about 1×10^4 cells per well in Costar 96-well plates, and are incubated with different concentrations of compounds for about 72 hours in medium supplemented with 5% FBS. One lyophilized substrate solution vial is then reconstituted by adding 5 mL of substrate buffer solution, and is agitated gently until the solution is homogeneous. About 50 μL of mammalian cell lysis solution is added to 100 μL of cell suspension per well of a microplate, and the plate is shaken for about five minutes in an orbital shaker at −700 rpm. This procedure is used to lyse the cells and to stabilize the ATP. Next, 50 μL substrate solution is added to the wells and microplate is shaken for five minutes in an orbital shaker at −700 rpm. Finally, the luminescence is measured by a PerkinElmer TopCount® Microplate Scintillation Counter. Such assays, carried out with a range of doses of test compounds, allow the determination of the cellular anti-antiproliferative IC50 of the compounds of the present invention.

Data set [4] deals with C4815S BTK enzyme (Homo sapiens, UniProt Q06187, C481S). Description: Reversibility of binding to C481S BTK enzyme. It counts as biochemical. The settings on record: Cysteine residue not available for covalent binding.
C4815S BTK enzyme, sequence (Q06187 whole entry C481S): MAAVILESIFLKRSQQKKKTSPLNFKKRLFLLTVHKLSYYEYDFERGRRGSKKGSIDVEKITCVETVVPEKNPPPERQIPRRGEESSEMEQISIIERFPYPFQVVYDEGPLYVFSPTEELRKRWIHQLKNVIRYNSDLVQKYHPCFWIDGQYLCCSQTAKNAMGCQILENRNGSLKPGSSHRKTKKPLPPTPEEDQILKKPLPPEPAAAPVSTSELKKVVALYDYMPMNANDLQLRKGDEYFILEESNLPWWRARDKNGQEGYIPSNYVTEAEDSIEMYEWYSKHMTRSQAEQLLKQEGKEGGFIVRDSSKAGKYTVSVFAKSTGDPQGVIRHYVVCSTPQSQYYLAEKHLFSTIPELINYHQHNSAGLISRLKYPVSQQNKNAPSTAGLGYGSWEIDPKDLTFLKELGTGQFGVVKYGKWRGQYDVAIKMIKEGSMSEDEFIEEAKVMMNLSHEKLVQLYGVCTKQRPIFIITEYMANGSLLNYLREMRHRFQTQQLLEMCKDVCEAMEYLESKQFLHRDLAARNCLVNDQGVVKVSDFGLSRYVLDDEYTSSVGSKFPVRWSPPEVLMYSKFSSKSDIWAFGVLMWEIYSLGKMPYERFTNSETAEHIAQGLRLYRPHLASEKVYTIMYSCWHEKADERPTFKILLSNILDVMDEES
The conditions of data set [5]: rats, treatment for longer than 7 days; cited from earlier work.
For data set [6], the system named is basophil activation, B cell receptor activation, and constitutive p-BTK activity in whole blood lysates. As to conditions: read-out: IC50s for basophil activation, B cell receptor activation, and constitutive p-BTK activity; cited from earlier work.
The conditions of data set [7]: mice, even at higher doses; cited from earlier work.
The conditions of data set [8]: dogs, even at higher doses; cited from earlier work.
For data set [9] the following is noted: Phase I clinical trials, formulations containing GDC-0853; cited from earlier work.
Data set [10] is described as follows: Mice PK study. The class given is in vivo. The settings on record: plasma, CD-1 mouse, po, 25 mg/kg. The procedure: The pharmacokinetics of compounds were evaluated in CD-1 mouse via Intravenous and Oral Administration. The IV dose was administered as a slow bolus in the Jugular vein, and oral doses were administered by gavage. The formulation for IV dosing is 5% DMSO in 20% HPBCD in water, and the PO formulation is 2.5% DMSO, 10% EtOH, 20% Cremphor EL, 67.5% D5W. The PK time point for the IV arm was 5, 15, 30 min, 1, 2, 4, 6, 8, 12, 24 hours post dose, and for PO arm was 15, 30 min, 1, 2, 4, 6, 8, 12, 24 hours post dose. Approximately 0.03 mL blood was collected at each time point. Blood of each sample was transferred into plastic micro centrifuge tubes containing EDTA-K2 and plasma was collected within 15 min by centrifugation at 4000 g for 5 minutes in a 4° C. centrifuge. Plasma samples were stored in polypropylene tubes. The samples were stored in a freezer at −75±15° C. prior to analysis. Concentrations of compounds in the plasma samples were analyzed using a LC-MS/MS method. WinNonlin (Phoenix™, version 6.1) or other similar software was used for pharmacokinetic calculations. The following pharmacokinetic parameters were calculated, whenever possible from the plasma concentration versus time data: IV administration: C0, CL, Vd, T1/2, AUCinf, AUClast, MRT, Number of Points for Regression; PO administration: Cmax, Tmax, T1/2, AUCinf, AUClast, F %, Number of Points for Regression. The pharmacokinetic data was described using descriptive statistics such as mean, standard deviation. Additional pharmacokinetic or statistical analysis was performed at the discretion of the contributing scientist, and was documented in the data summary. For comparison purpose, the PK results of oral dosing of po, 25 mg/kg of Acalbrutinib, a FDA approved BTK inhibitor, were obtained using the same methods and shown in the Table below.

Data set [11] has as its target C481S Btk (Homo sapiens, UniProt Q06187, C481S). As to the kind of experiment: Caliper-based kinase assay, C481S BTK. The class given is biochemical. As to conditions: 0.5 nM enzyme, ATP 16 μM, room temperature 3 h; read-out: C481S BTK IC50 (nM) (reversible inhibition). The method, then: as §1

T1 sequence (Q06187 whole entry): as the sequence (Q06187 whole entry C481S) above, with S481C counted along it
C481S Btk, sequence (Q06187 whole entry C481S): as the sequence (Q06187 whole entry C481S) above

As to `C=CC(=O)Nc1cc(Nc2nc(-c3ccnc(N4CCc5c(sc6c5CCCC6)C4=O)c3CO)cn(C)c2=O)ccc1N1CCN(C2CCOCC2)C[C@@H]1C` [Example 56, N-[5-([6-[3-(hydroxymethyl)-2-[6-oxo-8-thia-5-azatricyclo[7.4.0.0^[2,7]]trideca-1(9), 2(7)-dien-5-yl]pyridin-4-yl]-4-methyl-3-oxopyrazin-2-yl]amino)-2-[(2S)-2-methyl-4-(oxan-4-yl)piperazin-1-yl]phenyl]prop-2-enamide], the “Conclusion (WT BTK)” value in data set [1] is listed as “Irreversible/covalent inhibition”. The IC50 in data set [2] came to 0.058 nM; in [3], 26000 nM.
Take `C=CC(=O)Nc1cc(Nc2nc(-c3ccnc(N4CCn5c(cc6c5CC(C)(C)C6)C4=O)c3CO)cn(C)c2=O)ccc1N1CCN(C)CC1` [Example 2, N-(5-((6-(2-(7,7-dimethyl-1-oxo-1,3,4,6,7,8-hexahydro-2H-cyclopenta[4,5]pyrrolo[1,2-a]pyrazin-2-yl)-3-(hydroxymethyl)pyridin-4-yl)-4-methyl-3-oxo-3,4-dihydropyrazin-2-yl)amino)-2-(4-methylpiperazin-1-yl)phenyl)acrylamide]: the “Conclusion (WT BTK)” value in data set [1] is reported as “irreversible/covalent inhibition”. For the same compound, the “Mode of binding to C481S BTK” value in data set [4] was “reversibly bind”.
On to `C[C@H]1CN(C2COC2)CCN1c1ccc(Nc2cc(-c3ccnc(N4CCn5c(cc6c5CC(C)(C)C6)C4=O)c3CO)cn(C)c2=O)nc1` [GDC-0853], for which the “Conclusion (WT BTK)” value in data set [1] is “Reversible”. Further, the Pancreatic toxicity entry in [5] is on record as “pancreatic toxicity”; in data set [7], “does not occur”; in data set [8], “does not occur”. In addition, the IC50 in data set [6] was 2 to 9 nM. For the same compound, the Tolerability result in data set [9] is “well-tolerated”.
As a reminder, the AUC is the area under the concentration-time curve, a measure of exposure. Read a low AUC as low exposure. Compound `CC#CC(=O)N1CCC[C@H]1c1nc(-c2ccc(C(=O)Nc3ccccn3)cc2)c2c(N)nccn12` [Acalabrutinib, reference compound] yielded an AUC in data set [10] of 1450 ng·h/mL. Further, the half-life in data set [10] (read-out: t ½ (converted)) was 1.1 h. Moreover, in data set [3] (Homo sapiens, HepG2), the IC50 was over 40000 nM.
Regarding `C=CC(=O)Nc1cc(Nc2nc(-c3ccnc(N4CCn5c(cc6c5CC(C)(C)C6)C4=O)c3C)cn(C)c2=O)ccc1N1CCN(C2COC2)C[C@@H]1C` [Example 11, (S)—N-(5-((6-(2-(7,7-dimethyl-1-oxo-1,3,4,6,7,8-hexahydro-2H-cyclopenta[4,5]pyrrolo[1,2-a]pyrazin-2-yl)-3-methylpyridin-4-yl)-4-methyl-3-oxo-3,4-dihydropyrazin-2-yl)amino)-2-(2-methyl-4-(oxetan-3-yl)piperazin-1-yl)phenyl)acrylamide], the “Conclusion (WT BTK)” value in data set [1] is listed as “Irreversible/covalent inhibition”. Moreover, the IC50 in data set [11] was 15.9 nM; in [2], 0.25 nM.
